The text below walks through data of article PMC12175894 (Science Advances, 2025).

Residue numbers refer to the chain shown, from its start. Like-named read-outs stand apart in the source and are kept apart here. Where only a bound is given, the exact number is not on record here.

One experiment addresses opioid δOR (Homo sapiens, UniProt P41143). Kind of experiment: Radioligand displacement, [3H]diprenorphine.
A further experiment addresses 5-HT1BR (Homo sapiens, UniProt P28222). In words: BRET Gαi1 activation. Background: In BRET a luciferase serves as donor, and the signal depends on an acceptor being close.
In a further experiment the target is 5-HT1AR + Gαi1 (Homo sapiens, UniProt P08908). Kind of experiment: cell-based.
The next experiment addresses T1, 5-HT1AR + GαoA (Homo sapiens, UniProt P08908).
T1 construct: host or cells: HEK293AΔGi/o
Kind of experiment: GloSensor cAMP in HEK293AΔGi/o co-transfected with GαoA. It is filed as cell-based.

Another experiment addresses neurotensin NTS2 (Homo sapiens, UniProt O95665). Kind of experiment: Radioligand displacement, [3H]NT(8-13).
The next experiment has as its target opioid κOR (Homo sapiens, UniProt P41145). In words: Radioligand displacement, [3H]diprenorphine.
Another experiment addresses adrenergic α2C (Homo sapiens, UniProt P18825). Kind of experiment: Radioligand displacement, [3H]RX821002. In general terms: Displacement assays read how much labelled ligand stays bound in the presence of the test substance.
The next experiment addresses α2BR (Homo sapiens, UniProt P18089). In words: BRET Gαi1 activation.
For the next experiment, the target named is 5-HT1FR (Homo sapiens, UniProt P30939). In words: BRET Gαi1 activation.
In a further experiment the target is dopamine D1 (Homo sapiens, UniProt P21728). In words: Radioligand displacement, [3H]SCH23390.
Chain of dopamine D1 (P21728 whole entry): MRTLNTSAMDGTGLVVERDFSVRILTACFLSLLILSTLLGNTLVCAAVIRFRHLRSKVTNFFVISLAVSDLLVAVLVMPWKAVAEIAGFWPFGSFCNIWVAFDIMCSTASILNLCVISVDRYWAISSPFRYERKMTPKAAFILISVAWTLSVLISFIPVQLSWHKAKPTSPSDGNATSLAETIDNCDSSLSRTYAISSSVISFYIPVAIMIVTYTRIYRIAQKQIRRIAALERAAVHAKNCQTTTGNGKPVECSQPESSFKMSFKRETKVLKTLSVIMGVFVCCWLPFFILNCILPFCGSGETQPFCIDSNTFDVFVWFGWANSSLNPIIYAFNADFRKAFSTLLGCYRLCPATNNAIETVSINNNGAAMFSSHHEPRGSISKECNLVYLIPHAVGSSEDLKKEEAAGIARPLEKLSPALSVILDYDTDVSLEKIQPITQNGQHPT
A further experiment deals with adrenergic α2B (Homo sapiens, UniProt P18089). In words: Radioligand displacement, [3H]RX821002.
Chain of adrenergic α2B (P18089 whole entry): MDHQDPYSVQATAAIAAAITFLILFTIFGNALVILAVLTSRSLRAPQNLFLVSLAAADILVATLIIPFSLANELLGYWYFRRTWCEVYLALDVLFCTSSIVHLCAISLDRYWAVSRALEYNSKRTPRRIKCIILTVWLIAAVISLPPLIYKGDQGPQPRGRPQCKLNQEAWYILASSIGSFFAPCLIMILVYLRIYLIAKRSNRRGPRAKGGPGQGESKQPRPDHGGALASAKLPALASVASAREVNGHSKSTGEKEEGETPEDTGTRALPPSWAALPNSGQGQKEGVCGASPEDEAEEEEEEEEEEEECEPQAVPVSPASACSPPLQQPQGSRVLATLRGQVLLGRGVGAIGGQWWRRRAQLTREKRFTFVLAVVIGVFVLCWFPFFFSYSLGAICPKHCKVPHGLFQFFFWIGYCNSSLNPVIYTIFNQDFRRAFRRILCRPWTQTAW
The target of the next experiment is α2CR (Homo sapiens, UniProt P18825). In words: BRET Gαi1 activation.
Chain of α2CR (P18825 whole entry): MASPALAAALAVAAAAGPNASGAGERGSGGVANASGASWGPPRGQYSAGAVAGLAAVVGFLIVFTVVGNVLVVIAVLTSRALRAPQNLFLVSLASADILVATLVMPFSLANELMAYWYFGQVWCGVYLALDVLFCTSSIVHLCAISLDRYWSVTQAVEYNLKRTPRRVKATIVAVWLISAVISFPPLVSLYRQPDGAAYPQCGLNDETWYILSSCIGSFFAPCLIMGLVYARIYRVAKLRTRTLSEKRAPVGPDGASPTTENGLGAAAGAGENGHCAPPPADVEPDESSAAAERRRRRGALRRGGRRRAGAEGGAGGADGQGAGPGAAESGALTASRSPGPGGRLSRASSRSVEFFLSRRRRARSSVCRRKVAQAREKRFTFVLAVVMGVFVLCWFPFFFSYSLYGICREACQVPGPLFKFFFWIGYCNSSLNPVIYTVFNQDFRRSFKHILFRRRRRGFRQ
The next experiment deals with T2, 5-HT1AR + Gαi2 (Homo sapiens, UniProt P08908).
T2 construct: host or cells: HEK293AΔGi/o
T2 sequence (P08908 whole entry): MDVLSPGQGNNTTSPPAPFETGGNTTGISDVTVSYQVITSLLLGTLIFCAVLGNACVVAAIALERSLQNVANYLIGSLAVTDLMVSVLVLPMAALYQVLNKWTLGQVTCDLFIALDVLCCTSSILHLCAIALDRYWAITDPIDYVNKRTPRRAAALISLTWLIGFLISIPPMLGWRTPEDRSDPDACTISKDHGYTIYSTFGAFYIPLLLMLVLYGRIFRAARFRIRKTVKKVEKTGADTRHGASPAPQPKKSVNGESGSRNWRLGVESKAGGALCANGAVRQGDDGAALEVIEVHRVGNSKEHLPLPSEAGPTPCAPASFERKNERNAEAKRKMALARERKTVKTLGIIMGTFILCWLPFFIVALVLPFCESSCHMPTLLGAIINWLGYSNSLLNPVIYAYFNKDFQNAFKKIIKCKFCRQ
T2 sequence (P04899 2-355 partner limits assumed): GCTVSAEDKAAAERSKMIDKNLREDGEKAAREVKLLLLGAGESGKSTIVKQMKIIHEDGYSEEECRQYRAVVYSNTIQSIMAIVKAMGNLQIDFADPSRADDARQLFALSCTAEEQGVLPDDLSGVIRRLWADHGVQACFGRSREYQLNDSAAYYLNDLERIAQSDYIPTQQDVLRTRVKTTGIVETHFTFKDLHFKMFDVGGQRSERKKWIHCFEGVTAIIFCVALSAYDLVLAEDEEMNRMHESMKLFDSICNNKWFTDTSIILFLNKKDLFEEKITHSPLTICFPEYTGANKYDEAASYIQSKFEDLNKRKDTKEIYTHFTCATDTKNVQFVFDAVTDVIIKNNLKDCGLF
Kind of experiment: GloSensor cAMP in HEK293AΔGi/o co-transfected with Gαi2. The format is cell-based.

Another experiment concerns the target muscarinic M3 (Homo sapiens, UniProt P20309). In words: Radioligand displacement, [3H]NMS.
For another experiment, the target named is 5-HT1DR (Homo sapiens, UniProt P28221). Kind of experiment: BRET Gαi1 activation.
Experiment [1] addresses T3, 5-HT1AR Q97^2.65A (Homo sapiens, UniProt P08908, Q97A).
T3 sequence (P08908 1-422 Q97A): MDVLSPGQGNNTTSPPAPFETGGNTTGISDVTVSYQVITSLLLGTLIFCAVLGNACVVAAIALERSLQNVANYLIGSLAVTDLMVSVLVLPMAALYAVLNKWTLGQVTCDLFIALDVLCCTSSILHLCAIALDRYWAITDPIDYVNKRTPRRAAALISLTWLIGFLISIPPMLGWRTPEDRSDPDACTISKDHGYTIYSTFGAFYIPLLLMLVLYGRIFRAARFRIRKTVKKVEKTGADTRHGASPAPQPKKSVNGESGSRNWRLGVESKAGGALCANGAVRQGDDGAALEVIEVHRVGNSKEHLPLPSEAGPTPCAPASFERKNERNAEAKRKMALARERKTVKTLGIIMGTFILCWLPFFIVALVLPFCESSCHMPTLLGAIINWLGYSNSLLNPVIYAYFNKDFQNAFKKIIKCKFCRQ
In words: Radioligand competition, displacement of [3H]WAY100635. The format is binding. The following applies: 5-HT1AR Q97A; HEK 293T membranes; read-out: Ki [nM ± SEM].

Experiment [2] deals with T3, 5-HT1AR Q97^2.65A. Kind of experiment: GloSensor cAMP accumulation in HEK293AΔGi/o. It is filed as cell-based. The following applies: read-out: Emax [% ± SEM], cAMP accumulation. For orientation: Changes in cAMP serve as a functional read-out for many G protein-coupled receptors.
Another experiment concerns the target T4, 5-HT1AR (Homo sapiens, UniProt P08908).
T4 sequence (P08908 1-422): T3 sequence (P08908 1-422 Q97A) with A97Q
Kind of experiment: GloSensor cAMP assay in HEK293T cells. It is filed as cell-based. Set-up: host or cells: HEK293T, HEK293A, HEK293AΔGs, HEK293AΔGi/o, HEK293AΔARRB1/B2.

For another experiment, the target named is T5, 5-HT1AR wildtype (Homo sapiens, UniProt P08908).
T5 construct: host or cells: HEK293T, HEK293A, HEK293AΔGs, HEK293AΔGi/o, HEK293AΔARRB1/B2
T5 sequence (P08908 1-422): T3 sequence (P08908 1-422 Q97A) with A97Q
Kind of experiment: GloSensor cAMP accumulation in HEK293AΔGi/o. The format is cell-based. The following applies: read-out: Emax [% ± SEM], cAMP accumulation.

T1 sequence (P08908 whole entry): as the sequence (P08908 whole entry) above
T1 sequence (P09471 2-354 partner limits assumed): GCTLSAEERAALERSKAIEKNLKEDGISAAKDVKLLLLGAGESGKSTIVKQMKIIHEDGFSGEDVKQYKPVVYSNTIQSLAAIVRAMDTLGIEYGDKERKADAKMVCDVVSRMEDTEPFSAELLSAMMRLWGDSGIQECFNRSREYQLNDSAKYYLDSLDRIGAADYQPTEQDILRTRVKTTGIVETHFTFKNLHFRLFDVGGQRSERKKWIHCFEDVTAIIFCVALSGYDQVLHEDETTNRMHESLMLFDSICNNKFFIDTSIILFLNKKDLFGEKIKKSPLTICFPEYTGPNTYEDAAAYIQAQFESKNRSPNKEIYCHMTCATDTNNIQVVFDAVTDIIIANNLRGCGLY
Chain of neurotensin NTS2 (O95665 whole entry): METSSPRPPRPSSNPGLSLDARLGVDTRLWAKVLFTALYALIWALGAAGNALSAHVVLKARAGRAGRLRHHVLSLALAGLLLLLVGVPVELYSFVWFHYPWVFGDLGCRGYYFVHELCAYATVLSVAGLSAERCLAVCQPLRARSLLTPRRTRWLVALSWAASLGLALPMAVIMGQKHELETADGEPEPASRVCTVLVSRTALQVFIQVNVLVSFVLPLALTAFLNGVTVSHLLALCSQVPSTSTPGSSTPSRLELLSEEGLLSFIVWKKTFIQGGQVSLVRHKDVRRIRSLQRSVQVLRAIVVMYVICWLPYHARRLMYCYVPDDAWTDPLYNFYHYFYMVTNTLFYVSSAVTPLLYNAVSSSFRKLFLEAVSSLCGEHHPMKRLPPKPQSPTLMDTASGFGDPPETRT
Chain of opioid κOR (P41145 whole entry): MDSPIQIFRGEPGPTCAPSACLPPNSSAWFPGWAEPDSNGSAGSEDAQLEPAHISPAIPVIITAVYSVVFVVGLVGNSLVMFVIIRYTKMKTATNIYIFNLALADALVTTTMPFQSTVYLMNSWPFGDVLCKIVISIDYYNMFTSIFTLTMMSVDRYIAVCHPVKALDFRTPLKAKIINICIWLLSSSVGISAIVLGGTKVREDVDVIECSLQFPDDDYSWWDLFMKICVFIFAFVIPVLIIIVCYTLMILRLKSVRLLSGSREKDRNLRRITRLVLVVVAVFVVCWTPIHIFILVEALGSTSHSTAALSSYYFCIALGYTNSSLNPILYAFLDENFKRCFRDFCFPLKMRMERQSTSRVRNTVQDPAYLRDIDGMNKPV
Chain of adrenergic α2C (P18825 whole entry): as the sequence (P18825 whole entry) above
Chain of 5-HT1BR (P28222 whole entry): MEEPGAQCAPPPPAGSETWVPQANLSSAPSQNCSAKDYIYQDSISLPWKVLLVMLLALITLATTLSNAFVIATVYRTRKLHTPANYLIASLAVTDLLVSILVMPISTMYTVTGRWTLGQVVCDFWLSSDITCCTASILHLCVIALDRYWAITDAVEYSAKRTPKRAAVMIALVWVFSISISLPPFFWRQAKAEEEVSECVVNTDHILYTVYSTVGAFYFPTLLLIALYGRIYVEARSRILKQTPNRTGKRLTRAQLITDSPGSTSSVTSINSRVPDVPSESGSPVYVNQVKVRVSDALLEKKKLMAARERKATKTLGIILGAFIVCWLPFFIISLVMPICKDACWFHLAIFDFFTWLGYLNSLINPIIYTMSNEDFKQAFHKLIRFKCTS
Chain of muscarinic M3 (P20309 whole entry): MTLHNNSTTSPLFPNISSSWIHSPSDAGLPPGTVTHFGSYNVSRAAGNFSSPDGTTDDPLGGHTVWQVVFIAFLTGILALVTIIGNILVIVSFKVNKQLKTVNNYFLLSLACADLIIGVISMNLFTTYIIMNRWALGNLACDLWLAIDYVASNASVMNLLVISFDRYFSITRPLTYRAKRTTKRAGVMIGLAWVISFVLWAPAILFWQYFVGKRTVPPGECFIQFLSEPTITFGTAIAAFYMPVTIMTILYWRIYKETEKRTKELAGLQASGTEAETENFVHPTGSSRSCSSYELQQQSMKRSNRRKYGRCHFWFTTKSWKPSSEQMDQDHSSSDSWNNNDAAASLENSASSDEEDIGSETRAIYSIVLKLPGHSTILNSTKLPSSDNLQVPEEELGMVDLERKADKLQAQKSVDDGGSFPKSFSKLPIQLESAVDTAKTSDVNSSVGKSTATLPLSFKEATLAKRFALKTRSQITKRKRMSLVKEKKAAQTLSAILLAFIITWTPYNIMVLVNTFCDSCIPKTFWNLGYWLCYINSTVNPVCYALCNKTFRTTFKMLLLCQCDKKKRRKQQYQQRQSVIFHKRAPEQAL
Chain of opioid δOR (P41143 whole entry): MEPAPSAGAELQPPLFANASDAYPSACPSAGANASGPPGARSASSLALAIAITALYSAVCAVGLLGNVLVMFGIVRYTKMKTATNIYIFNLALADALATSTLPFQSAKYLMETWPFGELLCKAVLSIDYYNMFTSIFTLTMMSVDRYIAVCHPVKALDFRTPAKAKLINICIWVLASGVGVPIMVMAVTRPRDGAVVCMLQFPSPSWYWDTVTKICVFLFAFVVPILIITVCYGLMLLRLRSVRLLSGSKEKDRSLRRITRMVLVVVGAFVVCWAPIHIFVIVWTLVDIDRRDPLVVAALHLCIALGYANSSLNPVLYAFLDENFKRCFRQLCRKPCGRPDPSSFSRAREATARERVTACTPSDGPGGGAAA
Chain of α2BR (P18089 whole entry): as the sequence (P18089 whole entry) above

As to `COc1ccccc1OCCNCCCOc1ccc2c(c1)NC(=O)CO2` [ST171], the inhibitory constant (Ki) (commonly a dissociation constant, usually derived from enzyme kinetics or from competition with a known ligand) on opioid δOR (Ki [nM ± SD]) was 24000 ± 3500 nM; at opioid δOR (pKi), 23400 nM; at neurotensin NTS2 (Ki [nM ± SD]), greater than 50000 nM; at neurotensin NTS2 (pKi), greater than 50100 nM; at opioid κOR (Ki [nM ± SD]), 6200 ± 850 nM; at opioid κOR (pKi) it was 6280 nM. Also, the inhibition constant (Ki) is 28 ± 12 nM at adrenergic α2C (Ki [nM ± SD]); 25.9 nM on adrenergic α2C (pKi); 260 ± 170 nM on dopamine D1 (Ki [nM ± SD]); 209 nM on dopamine D1 (pKi); 110 ± 60 nM on adrenergic α2B (Ki [nM ± SD]); 103 nM at adrenergic α2B (pKi). The figures for the Ki at muscarinic M3 (Ki [nM ± SD]), on muscarinic M3 (pKi) and on 5-HT1AR Q97^2.65A [1] were 49000 ± 28000 nM, 41500 nM and 63 nM, respectively. Besides, the concentration giving a half-maximal response (EC50) (usually the concentration that produces a half-maximal response) is 3.7 nM on 5-HT1BR; 2.5 ± 0.7 nM at 5-HT1AR + Gαi1; 4.1 ± 1 nM on 5-HT1AR + GαoA (HEK293AΔGi/o + GαoA, read-out: EC50 [nM ± SEM], inhibition of cAMP accumulation); 4.4 ± 1 nM at 5-HT1AR + Gαi2 (HEK293AΔGi/o + Gαi2, read-out: EC50 [nM ± SEM], inhibition of cAMP accumulation); 5.7 nM on 5-HT1DR; 0.9 ± 0.2 nM on 5-HT1AR (HEK293T, GloSensor; read-out: EC50 left [nM±SEM], inhibition of cAMP accumulation). Besides, the maximum response (Emax) (usually the greatest response seen or fitted, relative to the assay's reference) is 94% on 5-HT1BR; 100% at 5-HT1AR + GαoA; less than 10% at 5-HT1FR; 57 ± 7% on 5-HT1AR + Gαi2; 54% at 5-HT1DR; less than 5% at 5-HT1AR Q97^2.65A [2]. In addition, the Emax at 5-HT1AR (HEK-293T, read-out: Emax [%±SEM], inhibition of cAMP accumulation) was 100 ± 3%. Also, the intrinsic activity result at α2BR and at α2CR was “devoid of intrinsic activity” throughout.

In the case of `Cc1ccc(CNCC2(F)CCN(C(=O)c3ccc(F)c(Cl)c3)CC2)nc1` [befiradol, reference compound], the Emax at 5-HT1AR + GαoA is 107 ± 3%; at 5-HT1AR Q97^2.65A [2], 60 ± 2%; at 5-HT1AR (HEK-293T; read-out: Emax [%±SEM], inhibition of cAMP accumulation), 111 ± 6%; on 5-HT1AR wildtype it was 74 ± 3%. Also, the “Esat [%±SEM]” value at 5-HT1AR (HEK293T, GloSensor) is 71 ± 6%.
